{"source": "patent US20060147947A1", "about": "“AMPK pathway components” (priority 2002, published 2006)", "molecules": {"B1": {"name": "adiponectin: globular and full-length adiponectin protein (protein, UniProt Q15848 19-244, looked up)", "Adiponectin": "ETTTQGPGVLLPLPKGACTGWMAGIPGHPGHNGAPGRDGRDGTPGEKGEKGDPGLIGPKGDIGETGVPGAEGPRGFPGIQGRKGEPGEGAYVYRSAFSVGLETYVTIPNMPIRFTKIFYNQQNHYDGSTGKFHCNIPGLYYFAYHITVYMKDVKVSLFKKDKAMLFTYDQYQENNVDQASGSVLLHLEVGDQVWLQVYGEGERNGLYADNDNDSTFTGFLLYHDTN"}}, "key": {"[1]": {"test_system": "AMPK", "details": "cited from earlier work"}, "[2]": {"test_system": "amp-1(ok524) animals", "details": "1 mM sodium azide for 18 hours; amp-1(ok524) versus wild type", "procedure": "Dauer assays, heat tolerance and behavioral assays were performed as described. Starvation was performed by transfer to bacteria-free, peptone-free plates. […] Gut fluorescence was photographed on the focal plane of the lumen with a DM505 filter on a NIKON E800 microscope. Average intensity was determined with METAMORPH™ 6.1r1 software."}, "[3]": {"test_system": "N2 (wild type) animals", "excerpt": "(§1) To determine if the AMP/ATP ratio changed with age, we measured the levels of AMP, ADP, and ATP directly. We lysed 30 adult worms of the appropriate age, grown at the indicated temperature, lysed them, and separated the extract by Reversed Phase HPLC, measuring the Absorbance 260 nm. We used a C. elegans strain that lacks sperm at 25 C [CF512: fem-1(−); fer-15(−)].\n(§2) Thirty animals of the appropriate age were hand-transferred to ice-cold lysis buffer (ATP Bioluminiscense Kit, Roche), frozen in liquid nitrogen, boiled for 15 minutes, passed trough a 0.2μ filter (Nanosep), and subjected to isocratic reversed phase chromatography using a TARGA C18 250×4.6 mm 5 μM column equilibrated in 100 mM KH2PO4, pH 6.0 at 1 mL per min. Detection at 260 nm was performed using a WATERS 486 tunable detector. Peak areas were measured using PEAK EXPLORER™ software. […] Unless noted, animals were one day old adults.\n(§3) Dauer assays, heat tolerance and behavioral assays were performed as described. Starvation was performed by transfer to bacteria-free, peptone-free plates. Treatment with […] sodium azide was performed by transfer to plates with the drug; fraction alive was determined visually, six hours after transfer to normal growth. Gut fluorescence was photographed on the focal plane of the lumen with a DM505 filter on a NIKON E800 microscope. Average intensity was determined with METAMORPH™ 6.1r1 software."}, "[4]": {"test_system": "amp-1(ok524) animals", "excerpt": "as §1, §2, §3"}, "[5]": {"details": "1 mM Azide 4 hours, then no azide 1 hour"}}, "note": "Where two headings read alike, the source gives them in different places."}
{"molecule": "CN(C)C(=N)N=C(N)N", "note": "[Metformin]", "values": [{"measurement": "effect on AMPK activity", "setting": "[1]", "result": "stimulate AMPK activity"}]}
{"molecule": "[N-]=[N+]=[N-]", "note": "[sodium azide]", "values": [{"measurement": "sensitivity to killing", "setting": "[2]", "result": "more sensitive than wild type animals to killing"}, {"measurement": "AMP/ATP Average", "setting": "[3]; 1 mM Azide 1 hour", "result": 2.08}, {"measurement": "AMP/ATP Average", "setting": "[3]; 1 mM Azide 4 hours", "result": 2.53}, {"measurement": "AMP/ATP Average", "setting": "[3]; [5]", "result": 1.08}, {"measurement": "AMP/ATP Average", "setting": "[4]; 1 mM Azide 1 hour", "result": 3.19}, {"measurement": "AMP/ATP Average", "setting": "[4]; 1 mM Azide 4 hours", "result": 4.34}, {"measurement": "AMP/ATP Average", "setting": "[4]; [5]", "result": 1.24}, {"measurement": "AMP/ATP Average", "setting": "[4]; 1 mM Azide 4 hours, then no azide 2 hour", "result": 1.29}]}
{"molecule": "Leptin: peptide hormone that increases AMPK activity when applied to cells", "values": [{"measurement": "effect on AMPK activity", "setting": "[1]; applied to cells", "result": "increases AMPK activity"}]}
{"molecule": "B1", "values": [{"measurement": "effect on AMPK activity", "setting": "[1]; liver cells", "result": "stimulates AMPK activity"}, {"measurement": "effect on AMPK activity", "setting": "[1]; skeletal muscle", "result": "stimulate AMPK activity"}]}
